According to ChEMBL document CHEMBL4017441, “Mitigating the inhibition of human bile salt export pump by drugs: opportunities provided by physicochemical property modulation, in silico modeling, and structural modification” (Drug Metab Dispos, 2012):
Counter-ions that a name gives are not always drawn.

Biological target: Bile salt export pump (Homo sapiens, UniProt O95342)
Type: ADME

Row | SMILES | IC50 [µM]
1 | C[C@@H]1C[C@H]2[C@@H]3CCC4=CC(=O)C=C[C@]4(C)[C@@]3(F)[C@@H](O)C[C@]2(C)[C@@]1(O)C(=O)CO [DEXAMETHASONE] | 102
2 | CC(C)(CO)[C@@H](O)C(=O)NCCCO [DEXPANTHENOL] | > 1000
3 | CC1=NS(=O)(=O)c2cc(Cl)ccc2N1 [DIAZOXIDE] | > 1000
4 | c1ccc2c(c1)sc1ccccc12 [DIBENZOTHIOPHENE] | 388
5 | CCCCOc1cc(C(=O)NCCN(CC)CC)c2ccccc2n1 [DIBUCAINE] | 41.7
6 | NS(=O)(=O)c1cc(Cl)c(Cl)c(S(N)(=O)=O)c1 [DICHLORPHENAMIDE] | > 919
7 | O=C(O)Cc1ccccc1Nc1c(Cl)cccc1Cl [DICLOFENAC] | 65
8 | Cc1onc(-c2c(Cl)cccc2Cl)c1C(=O)N[C@@H]1C(=O)N2[C@@H]1SC(C)(C)[C@@H]2C(=O)O [DICLOXACILLIN] | < 10
9 | O=c1oc2ccccc2c(O)c1Cc1c(O)c2ccccc2oc1=O [DICUMAROL] | 39.9
10 | O=C1c2ccccc2CN2C(=O)c3ccccc3CN12 [DIFTALONE] | > 1000
11 | C[C@H]1O[C@@H](O[C@H]2[C@@H](O)C[C@H](O[C@H]3[C@@H](O)C[C@H](O[C@H]4CC[C@@]5(C)[C@H](CC[C@@H]6[C@@H]5CC[C@]5(C)[C@@H](C7=CC(=O)OC7)CC[C@]65O)C4)O[C@@H]3C)O[C@@H]2C)C[C@H](O)[C@@H]1O [DIGITOXIN] | < 10
12 | CC1(C)OC(=O)NC1=O [DIMETHADIONE] | > 1000
13 | CCCCc1cc2ccccc2c(OCCN(C)C)n1 [DIMETHISOQUIN] | 68.7
14 | CCCCC[C@H](O)/C=C/[C@H]1[C@H](O)CC(=O)[C@@H]1C/C=C\CCCC(=O)O [DINOPROSTONE] | > 1000
15 | CCN(CC)C(=S)S [DITIOCARB] | 69.3
16 | CC(CCc1ccc(O)cc1)NCCc1ccc(O)c(O)c1 (centres undefined) [DOBUTAMINE] | > 1000
17 | CCCCCCCCCCCCCCCCCCCCCCO [DOCOSANOL] | > 1000
18 | CN(CCOc1ccc(NS(C)(=O)=O)cc1)CCc1ccc(NS(C)(=O)=O)cc1 [DOFETILIDE] | 708
19 | COc1cc2c(cc1OC)C(=O)C(CC1CCN(Cc3ccccc3)CC1)C2 (centres undefined) [DONEPEZIL] | 146
20 | Oc1ccc(CCNCCCCCCNCCc2ccccc2)cc1O [DOPEXAMINE] | > 1000
21 | CN(C)CCOC(C)(c1ccccc1)c1ccccn1 (centres undefined) [DOXYLAMINE] | > 1000
22 | O=C(CCCN1CC=C(n2c(=O)[nH]c3ccccc32)CC1)c1ccc(F)cc1 [DROPERIDOL] | < 10
23 | CCCCOc1ccc(C(=O)CCN2CCCCC2)cc1 [DYCLONINE] | 275
24 | Cn1c(=O)c2c(ncn2CC(O)CO)n(C)c1=O (centres undefined) [DYPHYLLINE] | > 1000

Row | SMILES | IC50 [µM]
25 | O=c1c2ccccc2[se]n1-c1ccccc1 [EBSELEN] | < 10
26 | Clc1ccc(COC(Cn2ccnc2)c2ccc(Cl)cc2Cl)cc1 (centres undefined) [ECONAZOLE] | < 10
27 | CCCn1c(=O)[nH]c(=O)c2[nH]cnc21 [ENPROFYLLINE] | > 1000
28 | CCN1CCN(c2cc3c(cc2F)c(=O)c(C(=O)O)cn3C2CC2)CC1 [ENROFLOXACIN] | > 1000
29 | N#Cc1ccccc1OCC(O)CNCCNC(=O)Cc1ccc(O)cc1 (centres undefined) [EPANOLOL] | 244
30 | C#Cc1cccc(Nc2ncnc3cc(OCCOC)c(OCCOC)cc23)c1 [ERLOTINIB] | < 10
31 | C[C@]12CC[C@@H]3c4ccc(O)cc4CC[C@H]3[C@@H]1C[C@@H](O)[C@@H]2O [ESTRIOL] | > 1000
32 | C[C@]12CC[C@@H]3c4ccc(O)cc4CC[C@H]3[C@@H]1CCC2=O [ESTRONE] | > 1000
33 | CCOc1ccc2nc3cc(N)ccc3c(N)c2c1 [ETHACRIDINE] | 43.5
34 | C#C[C@]1(O)CC[C@H]2[C@@H]3CCc4cc(O)ccc4[C@H]3CC[C@@]21C [ETHINYL ESTRADIOL] | < 10
35 | CCc1cc(C(N)=S)ccn1 [ETHIONAMIDE] | > 1000
36 | CCN(CC)C(C)CN1c2ccccc2Sc2ccccc21 (centres undefined) [ETHOPROPAZINE] | 139
37 | CCC1(C)CC(=O)NC1=O (centres undefined) [ETHOSUXIMIDE] | > 1000
38 | CCN1C(=O)NC(c2ccccc2)C1=O (centres undefined) [ETHOTOIN] | > 792
39 | CC(O)(P(=O)(O)O)P(=O)(O)O [ETIDRONIC ACID] | > 1000
40 | CCOC(=O)c1cncn1[C@H](C)c1ccccc1 [ETOMIDATE] | 61.6
41 | O=C(O)Cc1ccccc1Oc1ccc(Cl)cc1Cl [FENCLOFENAC] | 236
42 | CN1CC(=O)N=C1NC(=O)Nc1cccc(Cl)c1 [FENOBAM ANHYDROUS] | > 1000
43 | Oc1ccc(C2CNCCc3c2cc(O)c(O)c3Cl)cc1 (centres undefined) [FENOLDOPAM] | > 1000
44 | O=C(NCC1CCCCN1)c1cc(OCC(F)(F)F)ccc1OCC(F)(F)F (centres undefined) [FLECAINIDE] | 218
45 | Cc1onc(-c2c(F)cccc2Cl)c1C(=O)N[C@@H]1C(=O)N2[C@@H]1SC(C)(C)[C@@H]2C(=O)O [FLOXACILLIN] | < 10
46 | CCOC(=O)c1ncn2c1CN(C)C(=O)c1cc(F)ccc1-2 [FLUMAZENIL] | > 733
47 | C[C@@H]1C[C@H]2[C@@H]3C[C@H](F)C4=CC(=O)C=C[C@]4(C)[C@@]3(F)[C@@H](O)C[C@]2(C)[C@@]1(O)C(=O)CO [FLUMETHASONE] | 68.5
48 | Fc1ccc(C(c2ccc(F)cc2)N2CCN(C/C=C/c3ccccc3)CC2)cc1 [FLUNARIZINE] | < 10

Row | SMILES | IC50 [µM]
49 | CC(=O)[C@@]1(O)CC[C@H]2[C@@H]3C[C@H](C)C4=CC(=O)C=C[C@]4(C)[C@@]3(F)[C@@H](O)C[C@@]21C [FLUOROMETHOLONE] | 101
50 | O=c1[nH]cc(F)c(=O)[nH]1 [FLUOROURACIL] | > 1000
51 | OCCN1CCN(CCCN2c3ccccc3Sc3ccc(C(F)(F)F)cc32)CC1 [FLUPHENAZINE] | 25.8
52 | CC1(C)O[C@@H]2C[C@H]3[C@@H]4C[C@H](F)C5=CC(=O)CC[C@]5(C)[C@H]4[C@@H](O)C[C@]3(C)[C@]2(C(=O)CO)O1 [FLURANDRENOLIDE] | 71.2
53 | CC(C(=O)O)c1ccc(-c2ccccc2)c(F)c1 (centres undefined) [FLURBIPROFEN] | 725
54 | CC(C)C(=O)Nc1ccc([N+](=O)[O-])c(C(F)(F)F)c1 [FLUTAMIDE] | 60.8
55 | CCCc1c(OCC(O)COc2ccc3c(=O)cc(C(=O)O)oc3c2CCC)ccc(C(C)=O)c1O (centres undefined) [FPL-55712] | < 10
56 | CC(=O)O[C@H]1C[C@@]2(C)[C@@H](C[C@@H](O)[C@H]3[C@@]4(C)CC[C@@H](O)[C@@H](C)[C@@H]4CC[C@@]32C)/C1=C(\CCC=C(C)C)C(=O)O [FUSIDATE SODIUM] | < 10
57 | NCC1(CC(=O)O)CCCCC1 [GABAPENTIN] | > 1000
58 | CO/N=C1\CN(c2nc3c(cc2F)c(=O)c(C(=O)O)cn3C2CC2)CC1CN (centres undefined) [GEMIFLOXACIN] | > 1000
59 | O=C(OCC(O)CO)c1ccccc1Nc1ccnc2cc(Cl)ccc12 (centres undefined) [GLAFENINE] | < 14.9
60 | Cc1ccc(S(=O)(=O)NC(=O)NN2CC3CCCC3C2)cc1 (centres undefined) [GLICLAZIDE] | 591
61 | CCC1=C(C)CN(C(=O)NCCc2ccc(S(=O)(=O)NC(=O)N[C@H]3CC[C@H](C)CC3)cc2)C1=O [GLIMEPIRIDE] | < 10
62 | COc1ccccc1O [GUAIACOL] | > 1000
63 | N=C(N)N/N=C/c1c(Cl)cccc1Cl [GUANABENZ] | 344
64 | N=C(N)NCCN1CCCCCCC1 [GUANETHIDINE] | > 1000
65 | CC1(C)O[C@@H]2C[C@H]3[C@@H]4CCC5=CC(=O)CC[C@]5(C)[C@@]4(F)[C@@H](O)C[C@]3(C)[C@]2(C(=O)CCl)O1 [HALCINONIDE] | < 10
66 | CC(=O)NCCCCCCNC(C)=O [HEXAMETHYLENEBISACETAMIDE] | > 1000
67 | Oc1ccc(C(O)CNCCCCCCNCC(O)c2ccc(O)c(O)c2)cc1O (centres undefined) [HEXOPRENALINE] | > 1000
68 | CC(CNC1CCCCC1)OC(=O)c1ccccc1 (centres undefined) [HEXYLCAINE HYDROCHLORIDE] | 506
69 | NCCc1c[nH]cn1 [HISTAMINE] | > 1000
70 | CCN(CC)CCNc1ccc(CO)c2sc3ccccc3c(=O)c12 [HYCANTHONE] | 29.8
71 | NNc1nncc2ccccc12 [HYDRALAZINE] | > 1000
72 | C[C@]12CCC(=O)C=C1CC[C@@H]1[C@@H]2[C@@H](O)C[C@@]2(C)[C@H]1CC[C@]2(O)C(=O)CO [HYDROCORTISONE] | 252

Row | SMILES | IC50 [µM]
73 | NS(=O)(=O)c1cc2c(cc1C(F)(F)F)NCNS2(=O)=O [HYDROFLUMETHIAZIDE] | > 1000
74 | OCCOCCN1CCN(C(c2ccccc2)c2ccc(Cl)cc2)CC1 (centres undefined) [HYDROXYZINE] | 72.9
75 | CC(C)Cc1ccc(C(C)C(=O)O)cc1 (centres undefined) [IBUPROFEN] | > 789
76 | Cc1ccc(NC(=O)c2ccc(CN3CCN(C)CC3)cc2)cc1Nc1nccc(-c2cccnc2)n1 [IMATINIB] | < 10
77 | CCn1ccnc1CC1COc2ccccc2O1 (centres undefined) [IMILOXAN] | 61.7
78 | C[C@@H](O)[C@H]1C(=O)N2C(C(=O)O)=C(SCCN=CN)C[C@H]12 [IMIPENEM ANHYDROUS] | > 1000
79 | Nc1cc(-c2ccncc2)c[nH]c1=O [INAMRINONE] | 371
80 | c1ccc2c(CCC3CCNCC3)c[nH]c2c1 [INDALPINE] | > 1000
81 | CC1Cc2ccccc2N1NC(=O)c1ccc(Cl)c(S(N)(=O)=O)c1 (centres undefined) [INDAPAMIDE] | 145
82 | O=C(NC1CCN(CCc2c[nH]c3ccccc23)CC1)c1ccccc1 [INDORAMIN] | 109
83 | Oc1c(I)cc(I)c2cccnc12 [IODOQUINOL] | > 1000
84 | CC(C)NNC(=O)c1ccncc1 [IPRONIAZID] | > 953
85 | O=C1c2ccccc2S(=O)(=O)N1CCCCN1CCN(c2ncccn2)CC1 [IPSAPIRONE] | 31.2
86 | CCC(NC(C)C)C(O)c1ccc(O)c(O)c1 (centres undefined) [ISOETHARINE] | > 1000
87 | CC(C)NCC(O)c1ccc(O)c(O)c1 (centres undefined) [ISOPROTERENOL] | > 986
88 | CC(COc1ccccc1)NC(C)C(O)c1ccc(O)cc1 (centres undefined) [ISOXSUPRINE] | 573
89 | CN1CCC(=C2c3ccccc3CC(=O)c3sccc32)CC1 [KETOTIFEN] | > 429
90 | CC(CCc1ccccc1)NCC(O)c1ccc(O)c(C(N)=O)c1 (centres undefined) [LABETALOL] | 649
91 | OC[C@@H](O)[C@@H](O[C@@H]1O[C@H](CO)[C@H](O)[C@H](O)[C@H]1O)[C@H](O)[C@@H](O)CO [LACTITOL] | > 1000
92 | CS(=O)(=O)CCNCc1ccc(-c2ccc3ncnc(Nc4ccc(OCc5cccc(F)c5)c(Cl)c4)c3c2)o1 [LAPATINIB] | < 10
93 | Cc1ccc2c(c1)c1c(n2CCc2ccc(C)nc2)CCN(C)C1 [LATREPIRDINE] | 136
94 | C[C@H](CN(C(=O)c1ccc(C#N)cc1)c1ccccn1)N1CCN(c2cccc3c2OCCO3)CC1 [LECOZOTAN] | < 10
